Measurements from US9617261B2, “Substituted pyridinone compounds as MEK inhibitors” (The Asan Foundation, priority 2013, dated 2017).

What was measured:
[1] = tested on: COLO205 cell line (Colon cancer); experiment: Cell viability assay (CellTiter-Glo), COLO205; details: Homo sapiens, COLO 205; COLO205, 72 hours; read-out: IC50 Cell-based assay (COLO205)
Experimental: (§1) The CellTiter-Glo® assay was purchased from Promega. All the reagents and plates for cell culture were purchased Invitrogen Life Technology and Nunc, respectively.
(§2) To investigate whether a compound is able to inhibit the activity of MEK in cells, a mechanism-based assay using COLO205 cell line (Colon cancer) and M14 cell line (Melanoma) were developed. COLO205 cells and M14 cells were cultured in a tissue culture flask to 80% confluence in RPMI1640 plus 10% fetal bovine serum. Cells were collected and plated onto 96 well culture plates at 2×10^2 cells/well. Plates were incubated overnight at 37° C. in a 5% CO2 incubator to allow cells to adhere. Various concentrations of MEK inhibitors were added to the plates and incubated at 37° C. for 72 hours. After 72 hours, 20 μl of CellTiter-Glo® reagent was added to each well. Mix by orbital shaking for 2 min, then incubates at room temperature for 15 min. Cell lysate were transferred into a 96 well white plate (Thermo). Plates were read out by EnVision Multilabel Plate Reader. The data were analyzed using GraphPad Prism5.

Mek1 = Mek1 (Homo sapiens (Human), UniProt Q02750); experiment: Mek1 kinase assay (LANCE); type: biochemical; details: Mek1 0.5 nM, 50 μM ATP, 90 min at 23° C.; read-out: IC50 Enzymatic assay
Excerpt: The LANCE Ultra assay kit was purchased from PerkinElmer. The ULight™-MBP peptide, Europium labeled Antibody and LANCE Detection buffer were purchased from PerkinElmer. The APT and dimethylsulfoxide were purchased from Sigma-Aldrich. The 5× Kinase buffer were purchased from Invitrogen.
A Mek1 kinase assay (LANCE, PerkinElmer) was developed for supporting compound profiling and lead optimization. […] Then the phosphorylated Erk1 was able to phosphorylate ULight™-MBP peptide (PerkinElmer). The phosphorylated peptide was detected by Europium-anti-phospho-MBP (PerkinElmer). […] After quenching the reaction with […], 2 nM Europium-anti-phospho-MBP was added to the reaction mixture and incubated for 60 min, followed by a detection using EnVision Multilabel Plate Reader (PerkinElmer). The IC50 values were derived through a curve fitting using GraphPad Prism5.

M14 cell line (Melanoma) = experiment: Cell viability assay (CellTiter-Glo), M14; details: Homo sapiens; M14, 72 hours; read-out: IC50 Cell-based assay (M14)
Experimental: as §1, §2

[2] = Example 3 toxicity study by oral administration for 8 days; type: in vivo, Sprague-Dawley rats; details: for Body weight: escalating 5-320 mg/kg over 8 days
Experimental: To evaluate the potential toxicity, test article, Example 3, was administered orally for 8 days to Sprague-Dawley rats.
Male and female Sprague-Dawley rats, 6 weeks of age at onset of the study, were assigned to 2 experimental groups as follow: (1) 2 male rats treated 5, 5, 10, 20, 40, 80, 160, 320 mg/kg each day with doses escalating for 8 days (2) 2 female rats treated 5, 5, 10, 20, 40, 80, 160, 320 mg/kg each day with doses escalating for 8 days. Each article was in vehicle (Captisol).
Body weight was measured on a daily basis to determine toxicity. All groups were sacrificed at 9th day.

Sequence of Mek1 (Q02750 whole entry, species assumed): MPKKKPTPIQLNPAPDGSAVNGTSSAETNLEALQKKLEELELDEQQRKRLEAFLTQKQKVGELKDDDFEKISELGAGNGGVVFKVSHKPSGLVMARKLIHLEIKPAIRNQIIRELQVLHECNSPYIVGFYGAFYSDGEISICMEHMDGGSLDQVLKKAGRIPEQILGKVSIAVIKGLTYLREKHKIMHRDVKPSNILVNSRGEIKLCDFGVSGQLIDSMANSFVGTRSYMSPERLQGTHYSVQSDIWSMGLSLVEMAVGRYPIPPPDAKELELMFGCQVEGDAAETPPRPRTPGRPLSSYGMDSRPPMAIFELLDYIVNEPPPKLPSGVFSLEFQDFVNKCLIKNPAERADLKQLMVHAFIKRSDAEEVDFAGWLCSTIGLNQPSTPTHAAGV

Compound	IC50 [1] [µM]	IC50 (Mek1) [µM]	IC50 (M14 cell line (Melanoma)) [µM]	Body weight ([2]; female rats)	Mortality ([2]; male and female rats, escalating 5, 5, 10, 20, 40, 80, 160, 320 mg/kg over 8 days)	Body weight ([2]; male rats)
Cn1c(Nc2ccc(I)cc2F)c(C(=O)NOCCO)c2ncccc2c1=O [Example 1, 7-(2-fluoro-4-iodophenylamino)-N-(2-hydroxyethoxy)-6-methyl-5-oxo-5,6-dihydro-1,6-naphthyridine-8-carboxamide]	< 0.5	< 1	< 0.5	–	–	–
Cn1c(Nc2ccc(I)cc2F)c(-c2nnc(N)o2)c2ncccc2c1=O [Example 2, 8-(5-amino-1,3,4-oxadiazol-2-yl)-7-(2-fluoro-4-iodophenylamino)-6-methyl-1,6-naphthyridin-5(6H)-one]	< 50	< 10	< 50	–	–	–
Cn1c(Nc2ccc(I)cc2F)c(C(=O)NOCCO)c2c(c1=O)CCC2 [Example 3, 3-(2-fluoro-4-iodophenylamino)-N-(2-hydroxyethoxy)-2-methyl-1-oxo-2,5,6,7-tetrahydro-1H-cyclopenta[c]pyridine-4-carboxamide]	< 0.005	< 0.5	< 0.01	decreased after 6 days	No mortality was observed	decreased at day 6 and day 8
Cn1c(Nc2ccc(I)cc2F)c(C(N)=O)c2c(c1=O)CCC2 [Example 4, 3-(2-fluoro-4-iodophenylamino)-2-methyl-1-oxo-2,5,6,7-tetrahydro-1H-cyclopenta[c]pyridine-4-carboxamide]	< 0.05	< 5	< 0.5	–	–	–
Cn1c(Nc2ccc(I)cc2F)c(-c2nnc(N)o2)c2c(c1=O)CCC2 [Example 9, 4-(5-amino-1,3,4-oxadiazol-2-yl)-3-(2-fluoro-4-iodophenylamino)-2-methyl-2,5,6,7-tetrahydro-1H-cyclopenta[c]pyridin-1-one]	< 0.05	< 5	< 1	–	–	–
Cn1c(Nc2ccc(I)cc2F)c(C(=O)NOCCO)c2c(c1=O)CC(C)(C)C2 [Example 10, 3-(2-fluoro-4-iodophenylamino)-N-(2-hydroxyethoxy)-2,6,6-trimethyl-1-oxo-2,5,6,7-tetrahydro-1H-cyclopenta[c]pyridine-4-carboxamide]	< 0.05	–	< 0.1	–	–	–

Further lines, with some results ahead:

IC50 [1] [µM]	IC50 (Mek1) [µM]	IC50 (M14 cell line (Melanoma)) [µM]	Compound	Body weight ([2]; female rats)	Mortality ([2]; male and female rats, escalating 5, 5, 10, 20, 40, 80, 160, 320 mg/kg over 8 days)	Body weight ([2]; male rats)
< 0.005	< 0.5	< 0.05	C[C@H](O)CONC(=O)c1c2c(c(=O)n(C)c1Nc1ccc(I)cc1F)CCC2 [Example 5, (S)-3-(2-fluoro-4-iodophenylamino)-N-(2-hydroxypropoxy)-2-methyl-1-oxo-2,5,6,7-tetrahydro-1H-cyclopenta[c]pyridine-4-carboxamide]	–	–	–
< 0.01	< 1	< 0.1	C[C@@H](O)CONC(=O)c1c2c(c(=O)n(C)c1Nc1ccc(I)cc1F)CCC2 [Example 6, (R)-3-(2-fluoro-4-iodophenylamino)-N-(2-hydroxypropoxy)-2-methyl-1-oxo-2,5,6,7-tetrahydro-1H-cyclopenta[c]pyridine-4-carboxamide]	–	–	–
< 0.005	< 5	< 0.5	Cn1c(Nc2ccc(I)cc2F)c(C(=O)NOCC(C)(C)O)c2c(c1=O)CCC2 [Example 7, 3-(2-fluoro-4-iodophenylamino)-N-(2-hydroxy-2-methylpropoxy)-2-methyl-1-oxo-2,5,6,7-tetrahydro-1H-cyclopenta[c]pyridine-4-carboxamide]	–	–	–
< 0.005	< 0.5	< 0.05	Cn1c(Nc2ccc(I)cc2F)c(C(=O)NOCC(O)CO)c2c(c1=O)CCC2 (centres unmarked) [Example 8, N-(2,3-dihydroxypropoxy)-3-(2-fluoro-4-iodophenylamino)-2-methyl-1-oxo-2,5,6,7-tetrahydro-1H-cyclopenta[c]pyridine-4-carboxamide]	–	–	–
< 0.005	< 0.5	< 0.05	Cn1c(Nc2ccc(I)cc2Cl)c(C(=O)NOCCO)c2c(c1=O)CCC2 [Example 11, 3-(2-chloro-4-iodophenylamino)-N-(2-hydroxyethoxy)-2-methyl-1-oxo-2,5,6,7-tetra hydro-1H-cyclopenta[c]pyridine-4-carboxamide]	–	–	–
